From publication PMC4575030 (PLoS ONE, 2015) come the findings set out here.

Structures can show the parent of a compound that is named as a salt. Where two headings read alike, the source gives them in different places.

For data set [1], the system named is rat spinal nerve ligation model. Put plainly: Tactile allodynia following spinal nerve ligation (SNL). It counts as in vivo. Conditions: gabapentin positive control, 75 min after dosing; statistically significant. An excerpt:
A decrease in tactile response threshold, using calibrated von Frey filaments (Stoelting Co., Wood Dale, IL), was used as a measure of tactile allodynia following spinal nerve ligation (SNL). Prior to surgery, each animal underwent baseline testing to determine suitability for the assay. Briefly, animals were placed on a raised platform with a grid meshed floor. The distance between the mesh was ¼”. Once acclimated, each animal received a series of trials according to the up-down method described by Dixon. Animals showing a response to less than 4 g were deemed already sensitive to the stimulus and were removed. A maximal fiber of 15 g was employed as a cut-off threshold. Surgery was then performed with a procedure slightly modified by that reported by Kim and Chung. Briefly, the left L5 spinal nerve was carefully isolated from the surrounding tissue. Using 5–0 silk suture, a tight ligature was placed around L5 nerve. Muscle and skin were then closed using 4–0 absorbable suture and wound clips. Animals were allowed to recover and were carefully monitored for seven days to ensure proper healing and ensure there was no mutilation of the affected limb. On day 21 post-surgery, animals were again tested to ensure the development of tactile allodynia. […] Animals were then randomized into groups and dosed with the test compound, gabapentin, or vehicle and assessed as stated above. […]

The target of the next data set is T1, hNav1.7 (Homo sapiens, UniProt Q15858).
T1 construct: expressed in transfected cells; host or cells: HEK 293
The data set is described as follows: Manual whole cell patch clamp electrophysiology on HEK 293 cells stably expressing hNav1.7. It counts as cell-based. As to the method:
Except as indicated, recordings to determine potency of aminotriazines on Nav1.7 were made with manual electrophysiology. HEK 293 cells stably expressing hNav1.7 were voltage-clamped using the whole cell patch clamp configuration. Cells were plated onto 35 mm culture dishes 0–24 hours before recording, and tissue culture medium was exchanged for external solution containing (in mM) 140 NaCl, 5 KCl, 2 CaCl2, 1 MgCl2, 10 HEPES, 11 glucose, pH 7.4 with NaOH. Patch pipettes were pulled from borosilicate glass capillaries (1.2 mm outer diameter, World Precision Instruments, Sarasota, FL) with a P-97 pipette puller (Sutter Instruments, Novato, CA) and backfilled with internal solution containing (in mM) 62.5 CsCl, 75 CsF, 2.5 MgCl2, 5 EGTA, 10 HEPES, pH 7.25 with CsOH. Pipette resistances were between 1.5 and 2.0 MΩ. After formation of the whole-cell configuration, cells were lifted off the dish bottom with the patch pipette and positioned directly in front of a microarray of glass tubes (each tube internal diameter ~ 1 mm) with each tube containing continuously flowing control or test solution. A full current-voltage relation was recorded from each cell, and cells with poor space clamp as indicated by discontinuous I-V relation or by prolonged or nonexponential current kinetics were discarded. Solution switching was accomplished by moving the microarray with computer control via an RSC-160 rapid solution exchanger (Bio-Logic, Claix, France). Currents were recorded with an Axopatch 200B patch-clamp amplifier driven by pCLAMP software, filtered (4-pole Bessel) at 5 kHz during acquisition, and digitized at 20 kHz using pClamp9.2. Whole cell capacitance and series resistance were compensated at 0%- 80%, and reported voltages were uncorrected for liquid junction potentials. Recordings were made at room temperature. Concentration-response curves were taken by measuring inward Nav1.7 current every five to six seconds with a 10 ms to 20 ms depolarization to near the peak of the current-voltage relation, before and after steady-state inhibition by a given concentration of aminotriazine. For concentration response curves on partially inactivated channels, holding voltage was set to produce 20% fractional inactivation. […] Occasionally two compound concentrations were tested in parallel without resetting the voltage, if inhibition was rapid and the current level steady. […] Concentration response curves on non-inactivated channels generally were taken with multiple concentrations added in series without washoff of the previous concentration.

For a further data set, the target named is rat Nav1.7 (Rattus norvegicus, UniProt O08562). The data set is described as follows: PatchXpress automated electrophysiology on rat Nav1.7. The conditions noted are these: 20%-inactivated rat Nav1.7. It counts as cell-based.
The nature of data set [2]: In vitro plasma protein binding. It counts as in vitro ADME.
The nature of data set [3]: Terminal plasma and brain concentrations after behavioral testing. It counts as in vivo, rat. Conditions: for Effective [plasma]: mean terminal plasma concentration at the lowest effective dose in the rat formalin test.
Data set [4] has as its system rat formalin model of pain. Put plainly: Formalin test (formalin-induced flinching). It counts as in vivo. The conditions noted are these: for Decrease in formalin flinching: phase 2 (10 to 40 min), percent of vehicle; for Analgesic efficacy: rat formalin model, significant (p < 0.05) decrease in flinching at a dose without a reduction in open field movement that obviated the result; for Reduction in formalin flinching, result in words: rat formalin test. As to the method: Formalin-induced flinching was measured using the Automated Nociception Analyzer (ANA) (University Anesthesia Research & Development Group, La Jolla, CA). Rats were habituated to the ANA testing chambers for at least 30 minutes prior to the formalin injection. At test time, each rat was removed from the testing chamber and gently wrapped in a towel. 50 μL of 2.5% formalin solution was injected into the dorsal surface of the left hind paw with a 30 gauge needle. A small metal band was then affixed to the plantar side of the injected paw with one drop of super glue. The animal was then unwrapped from the towel, placed back in the testing chamber, and flinching behavior was scored for 40 minutes by the ANA software. While minimized, non-painful paw movement from the natural activity of an alert animal could be erroneously binned by the automated recording system as a nociceptive behavior. These behaviors are not subtracted from the flinching total. […] Total flinching behavior was used as the endpoint of the assay.

A further data set concerns naïve rats. The data set is described as follows: Open field activity (basic movement). It counts as in vivo, rat. Conditions: formalin-naïve rats. As to the method:
Basic movement was measured using the Photobeam Activity System Open Field (San Diego Instruments, San Diego, CA) equipped with 48 infrared photocell emitters and detectors. Photobeams used to measure vertical movement were positioned 14 cm above the test chamber floor. Each testing chamber was made of Plexiglas (41 x 41 x 36 cm) and was devoid of any bedding. At the beginning of the test session, each animal was placed in a separate testing chamber and the room lights were turned off. Basic movement was measured for 30 minutes.

For another data set, the system named is rat CFA model of pain. Put plainly: CFA-induced thermal hyperalgesia. The conditions noted are these: morphine s.c., 30 min after dosing, positive control. It counts as in vivo. The procedure: CFA-induced thermal hyperalgesia was measured using the Thermal Plantar Analgesia Instrument (Ugo Basile, Italy). Intensity of the radiant heat stimulus was adjusted to achieve a withdrawal latency of approximately 13 s in naïve animals. On test day one, animals were placed on the apparatus in their individual testing chambers with an absorbent towel at the bottom and allowed to habituate for at least 30 minutes. The towel was then removed and animals were allowed to acclimate for at least 15 minutes more. After habituation, animals were placed back in their home cages until the following day. On test day two, animals were placed back in the testing chambers until calm (typically 20 minutes). The thermal device was positioned on the center of the left hind paw and the test was started. The time for the animal to withdraw its paw from the thermal stimulus was recorded. A cut-off of 30 seconds was used to prevent tissue damage. Few trials went past 20 seconds and none past 25 seconds. This procedure was repeated for three trials per animal, each separated by at least 5 min, and trials were averaged to determine baseline withdrawal latencies. After determining baseline measures, each animal received an injection of 50 μl CFA (1:1 emulsion with PBS, Sigma, St. Louis, MO) into the plantar side of the left hind paw with a 26 gauge needle. Animals were then placed back in their home cages until the following day. Approximately 24 h after the CFA injection, withdrawal latencies to heat were determined as described above. Animals were then randomized based on their Post-CFA baseline score and treated with the test compound or vehicle. […] The experimenter was blinded to drug treatment during this assay. Percent return to baseline latency was used as the endpoint of the assay.

The mark [5] stands for this setting: IC50 (μM) 20%-inactivated, 20%-inactivated human Nav1.7, holding voltage set to produce 20% fractional inactivation.
The mark [6] stands for this setting: non-inactivated human Nav1.7, holding voltage -140 mV or occasionally -120 mV, peak concentration tested 10 μM, read-out: IC50 (μM) Non-inactivated.

T1 sequence (Q15858 whole entry): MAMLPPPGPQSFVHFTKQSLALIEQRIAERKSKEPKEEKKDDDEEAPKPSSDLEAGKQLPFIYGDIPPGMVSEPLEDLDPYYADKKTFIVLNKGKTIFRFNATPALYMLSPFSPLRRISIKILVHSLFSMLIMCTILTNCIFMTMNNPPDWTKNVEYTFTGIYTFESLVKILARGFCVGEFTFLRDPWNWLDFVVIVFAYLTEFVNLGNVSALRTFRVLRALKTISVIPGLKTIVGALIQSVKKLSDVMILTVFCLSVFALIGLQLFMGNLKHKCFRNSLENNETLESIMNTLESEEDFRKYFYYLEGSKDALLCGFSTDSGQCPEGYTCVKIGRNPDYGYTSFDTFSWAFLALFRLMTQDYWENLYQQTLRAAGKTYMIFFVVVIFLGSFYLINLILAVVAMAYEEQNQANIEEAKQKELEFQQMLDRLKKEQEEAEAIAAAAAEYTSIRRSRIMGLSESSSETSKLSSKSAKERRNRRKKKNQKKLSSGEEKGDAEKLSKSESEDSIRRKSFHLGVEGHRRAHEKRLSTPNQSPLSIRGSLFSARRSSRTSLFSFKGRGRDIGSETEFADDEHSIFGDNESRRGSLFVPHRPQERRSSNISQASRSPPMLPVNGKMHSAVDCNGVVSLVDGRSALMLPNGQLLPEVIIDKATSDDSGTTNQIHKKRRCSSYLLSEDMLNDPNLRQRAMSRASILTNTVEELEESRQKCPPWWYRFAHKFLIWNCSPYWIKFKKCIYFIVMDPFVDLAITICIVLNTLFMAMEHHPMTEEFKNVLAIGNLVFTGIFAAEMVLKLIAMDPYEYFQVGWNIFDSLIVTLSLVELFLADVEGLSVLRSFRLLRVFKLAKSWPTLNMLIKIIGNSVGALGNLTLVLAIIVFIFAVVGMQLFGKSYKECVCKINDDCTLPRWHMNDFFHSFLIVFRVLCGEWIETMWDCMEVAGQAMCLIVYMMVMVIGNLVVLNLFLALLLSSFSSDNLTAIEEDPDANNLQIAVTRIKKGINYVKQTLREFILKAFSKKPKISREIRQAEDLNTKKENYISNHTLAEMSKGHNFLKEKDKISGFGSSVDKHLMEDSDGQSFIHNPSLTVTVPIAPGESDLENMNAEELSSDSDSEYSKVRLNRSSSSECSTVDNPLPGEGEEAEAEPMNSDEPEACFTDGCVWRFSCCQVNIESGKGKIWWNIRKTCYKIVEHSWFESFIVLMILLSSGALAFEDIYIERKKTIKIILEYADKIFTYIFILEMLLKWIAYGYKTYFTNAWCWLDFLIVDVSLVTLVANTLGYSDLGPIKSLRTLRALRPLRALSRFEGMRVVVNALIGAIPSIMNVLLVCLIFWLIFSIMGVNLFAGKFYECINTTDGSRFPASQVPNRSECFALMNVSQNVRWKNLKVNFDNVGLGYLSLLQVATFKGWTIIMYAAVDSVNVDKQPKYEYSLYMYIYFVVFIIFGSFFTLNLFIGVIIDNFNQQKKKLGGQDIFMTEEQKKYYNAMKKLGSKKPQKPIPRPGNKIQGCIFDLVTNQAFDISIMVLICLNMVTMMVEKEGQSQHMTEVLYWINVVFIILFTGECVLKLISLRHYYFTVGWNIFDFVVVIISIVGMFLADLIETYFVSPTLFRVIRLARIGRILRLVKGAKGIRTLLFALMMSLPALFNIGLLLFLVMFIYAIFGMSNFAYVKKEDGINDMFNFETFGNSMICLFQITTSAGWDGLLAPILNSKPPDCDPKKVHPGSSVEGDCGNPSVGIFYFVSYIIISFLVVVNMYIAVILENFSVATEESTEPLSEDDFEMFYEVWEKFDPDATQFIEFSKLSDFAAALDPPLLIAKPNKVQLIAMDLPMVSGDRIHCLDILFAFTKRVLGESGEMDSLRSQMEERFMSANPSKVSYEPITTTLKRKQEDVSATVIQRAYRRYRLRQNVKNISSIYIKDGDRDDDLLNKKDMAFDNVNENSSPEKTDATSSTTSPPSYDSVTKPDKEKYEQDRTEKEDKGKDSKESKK
Sequence of rat Nav1.7 (O08562 whole entry): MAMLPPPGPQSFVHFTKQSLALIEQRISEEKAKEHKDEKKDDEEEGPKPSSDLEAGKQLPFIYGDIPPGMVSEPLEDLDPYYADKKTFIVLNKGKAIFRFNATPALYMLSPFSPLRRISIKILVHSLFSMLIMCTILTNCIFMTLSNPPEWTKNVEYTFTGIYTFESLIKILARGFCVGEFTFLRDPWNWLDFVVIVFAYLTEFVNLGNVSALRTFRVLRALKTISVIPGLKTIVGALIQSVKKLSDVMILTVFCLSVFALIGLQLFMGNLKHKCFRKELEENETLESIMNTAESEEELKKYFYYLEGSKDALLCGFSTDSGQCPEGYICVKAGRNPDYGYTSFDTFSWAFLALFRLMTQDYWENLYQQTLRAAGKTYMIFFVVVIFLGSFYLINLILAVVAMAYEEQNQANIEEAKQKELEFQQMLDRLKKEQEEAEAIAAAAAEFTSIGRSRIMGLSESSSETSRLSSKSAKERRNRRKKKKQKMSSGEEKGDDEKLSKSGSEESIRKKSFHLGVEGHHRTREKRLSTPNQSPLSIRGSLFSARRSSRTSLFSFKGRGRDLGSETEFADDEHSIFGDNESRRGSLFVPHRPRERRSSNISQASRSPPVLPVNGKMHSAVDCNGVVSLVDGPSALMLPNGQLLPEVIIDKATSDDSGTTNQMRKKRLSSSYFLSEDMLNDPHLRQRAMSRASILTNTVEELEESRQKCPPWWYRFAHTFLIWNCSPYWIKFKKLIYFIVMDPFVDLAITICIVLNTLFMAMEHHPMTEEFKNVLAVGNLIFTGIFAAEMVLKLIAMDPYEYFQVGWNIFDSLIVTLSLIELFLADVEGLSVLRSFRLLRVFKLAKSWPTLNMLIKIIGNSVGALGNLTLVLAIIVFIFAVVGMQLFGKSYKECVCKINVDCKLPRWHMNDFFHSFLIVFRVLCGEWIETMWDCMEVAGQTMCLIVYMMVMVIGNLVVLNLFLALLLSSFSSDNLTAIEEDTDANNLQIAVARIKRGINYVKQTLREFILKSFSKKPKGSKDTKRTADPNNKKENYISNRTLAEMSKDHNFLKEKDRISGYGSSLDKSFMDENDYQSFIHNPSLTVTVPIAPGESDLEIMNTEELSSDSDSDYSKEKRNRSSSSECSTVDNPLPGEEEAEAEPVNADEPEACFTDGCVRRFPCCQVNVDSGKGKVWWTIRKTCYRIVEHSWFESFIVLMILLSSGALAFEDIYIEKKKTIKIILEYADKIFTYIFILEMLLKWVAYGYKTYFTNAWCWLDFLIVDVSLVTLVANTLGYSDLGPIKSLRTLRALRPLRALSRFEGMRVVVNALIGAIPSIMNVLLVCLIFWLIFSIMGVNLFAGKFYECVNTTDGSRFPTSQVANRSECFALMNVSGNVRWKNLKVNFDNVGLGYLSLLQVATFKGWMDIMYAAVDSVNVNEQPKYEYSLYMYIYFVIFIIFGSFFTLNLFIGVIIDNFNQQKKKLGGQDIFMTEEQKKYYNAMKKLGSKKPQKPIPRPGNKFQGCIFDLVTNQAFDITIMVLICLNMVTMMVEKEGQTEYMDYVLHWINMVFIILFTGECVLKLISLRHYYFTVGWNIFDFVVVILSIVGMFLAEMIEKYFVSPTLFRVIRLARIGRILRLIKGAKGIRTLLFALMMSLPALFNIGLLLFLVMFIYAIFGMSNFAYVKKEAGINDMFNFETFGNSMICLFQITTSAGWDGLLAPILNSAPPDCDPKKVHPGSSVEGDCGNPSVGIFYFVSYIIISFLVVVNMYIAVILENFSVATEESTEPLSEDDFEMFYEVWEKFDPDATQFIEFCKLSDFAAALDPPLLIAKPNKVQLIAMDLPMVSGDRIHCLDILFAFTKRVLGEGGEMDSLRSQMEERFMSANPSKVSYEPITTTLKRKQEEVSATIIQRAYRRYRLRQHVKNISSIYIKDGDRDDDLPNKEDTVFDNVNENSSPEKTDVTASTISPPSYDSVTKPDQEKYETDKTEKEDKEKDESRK

With `NCC1(CC(=O)O)CCCCC1` [gabapentin, reference compound], the “Reversal of tactile allodynia compared to the vehicle group” value in data set [1] stood at 44%.

On to `CC(=O)Nc1cccc(Nc2ncnc(N3CCC(Oc4ccc(Cl)c(C)c4)CC3)n2)c1C` [Compound B, N-(3-((4-(4-(4-chloro-3-methylphenoxy)-1-piperidinyl)-1,3,5-triazin-2-yl)amino)-2-methylphenyl)acetamide], for which the IC50 was 0.5 µM on hNav1.7 (setting [5]), over 10 µM at hNav1.7 (setting [6]) and 3.5 µM against rat Nav1.7. This compound showed a fraction unbound in data set [2] of 0.006. Moreover, the “Effective [plasma]” value in data set [3] stood at 8.75 µM. The “Decrease in formalin flinching” value came to 17% in data set [4] (10 mg/kg p.o.), 30% in data set [4] (30 mg/kg p.o.) and 39% in data set [4] (60 mg/kg p.o.). Further, the Analgesic efficacy entry in data set [4] is “Yes”. In addition, the “Reduction in formalin flinching, result in words” value (“Reduction in formalin flinching” below) in data set [4] is “statistically significant and plasma concentration-dependent reduction in formalin flinching”. Moreover, the “Decrease in basic movement” value in the data set on naïve rats (30 mg/kg p.o.) stood at 5.6%; with naïve rats (60 mg/kg p.o.), 19%.

With `CN1CC[C@]23c4c5ccc(O)c4O[C@H]2[C@@H](O)C=C[C@H]3[C@H]1C5` [morphine, Morphine sulfate, reference compound], the “Total reduction in phase 2 flinching as percent of vehicle” value in data set [4] (morphine 2 mg/kg s.c., positive control) came to 68%. For the same compound, the “Reduction in formalin flinching” value in data set [4] was “statistically significant decrease in flinching compared to the vehicle group”. For the same compound, the “Average reversal of thermal hyperalgesia compared to baseline” value with rat CFA model of pain is on record as 87%.

Take `CC(=O)Nc1cccc(Nc2ncnc(N3CC(Oc4ccc(F)cc4)C3)n2)c1C` [Compound C, N-(3-((4-(3-(4-fluorophenoxy)-1-azetidinyl)-1,3,5-triazin-2-yl)amino)-2-methylphenyl)acetamide]: the values for the IC50 at hNav1.7 (setting [5]), at hNav1.7 (setting [6]) and on rat Nav1.7 were 1.3 µM, over 10 µM and 4.9 µM, respectively. This compound showed a fraction unbound in data set [2] of 0.164. Moreover, the Kp in data set [3] (brain and plasma, rat, ratio of concentrations measured following the formalin test) stood at 0.03. For the same compound, in data set [3], the “Effective [plasma]” value stood at 3.68 µM. The “Decrease in formalin flinching” value in data set [4] (3 mg/kg p.o.) is 14%; in data set [4] (10 mg/kg p.o.), 35%; in data set [4] (30 mg/kg p.o.) it was 53%. Also, the Analgesic efficacy entry in data set [4] is given as “Yes”. The “Reduction in formalin flinching” value in data set [4] was “statistically significant and plasma concentration-dependent reduction in formalin flinching”. The “Decrease in basic movement” value in the data set with naïve rats (3 mg/kg p.o.) is 6.8%; with naïve rats (10 mg/kg p.o., negative value = increase), 8.5%; with naïve rats (30 mg/kg p.o.) it was 23%.
